For the experiment, the target named is T1, human S1P1 receptor (Homo sapiens, UniProt P21453).
T1 construct: expressed in transfected cells; membranes were used
As to the kind of experiment: GTP γ35S binding assay for S1P1 activity. The class given is biochemical. As to conditions: membranes of cells stably expressing the S1P1 receptor, agonist potency. Here is the method: Compounds were synthesized and tested for S1P1 activity using the GTP γ^35S binding assay. These compounds may be assessed for their ability to activate or block activation of the human S1P1 receptor in cells stably expressing the S1P1 receptor.
GTP γ^355 binding was measured in the medium containing (mM) HEPES 25, pH 7.4, MgCl2 10, NaCl 100, dithiothreitol 0.5, digitonin 0.003%, 0.2 nM GTP γ^35 S, and 5 μg membrane protein in a volume of 150 μl. Test compounds were included in the concentration range from 0.08 to 5,000 nM unless indicated otherwise. Membranes were incubated with 100 μM 5′ adenylylimidodiphosphate for 30 min, and subsequently with 10 μM GDP for 10 min on ice. Drug solutions and membrane were mixed, and then reactions were initiated by adding GTP γ^35S and continued for 30 min at 25° C. Reaction mixtures were filtered over Whatman GF/B filters under vacuum, and washed three times with 3 mL of ice-cold buffer (HEPES 25, pH7.4, MgCl2 10 and NaCl 100). Filters were dried and mixed with scintillant, and counted for ^35S activity using a β-counter. Agonist-induced GTP γ^35S binding was obtained by subtracting that in the absence of agonist. Binding data were analyzed using a non-linear regression method. In case of antagonist assay, the reaction mixture contained 10 nM S1P in the presence of test antagonist at concentrations ranging from 0.08 to 5000 nM.
A general note: GTPγS is a poorly hydrolysed GTP analogue; its binding reports G protein activation.

T1 sequence (P21453 whole entry): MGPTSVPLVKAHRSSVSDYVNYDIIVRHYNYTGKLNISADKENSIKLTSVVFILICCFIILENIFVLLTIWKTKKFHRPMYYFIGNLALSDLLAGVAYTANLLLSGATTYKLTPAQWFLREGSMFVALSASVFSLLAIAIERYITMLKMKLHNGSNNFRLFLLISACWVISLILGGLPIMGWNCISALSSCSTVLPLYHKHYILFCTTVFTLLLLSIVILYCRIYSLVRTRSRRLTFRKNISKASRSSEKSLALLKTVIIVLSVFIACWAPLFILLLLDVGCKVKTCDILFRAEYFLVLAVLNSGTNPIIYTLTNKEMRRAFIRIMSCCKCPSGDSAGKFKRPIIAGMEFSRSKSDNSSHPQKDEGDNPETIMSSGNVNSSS

On to `Cc1nn(C(=O)CCc2ccc(CNCCC(=O)O)cc2)c2c1C1C(C2)C1(C)C` (stereo not shown) [Compound 1, 3-({4-[3-oxo-3-(3,4,4-trimethyl-3b,4,4a,5-tetrahydro-1H-cyclopropa[3,4]cyclopenta[1,2-c]pyrazol-1-yl)propyl]benzyl}amino)propanoic acid], for which it took 262 nM to reach a half-maximal effect (EC50).

Source of the values: patent US9108993B2, “Pyrazole derivatives as sphingosine 1-phosphate (S1P) receptor modulators” (Allergan, Inc., priority 2013, dated 2015).
